Where “and” joins values, the source holds several entries; their conditions need not be identical. Identical values can stand only once. Entries after “also recorded” stand apart in the source; their conditions may differ. Like-named read-outs stand apart in the source and are kept apart here.
Tests used:
tumor = settings: same dose; no reference given; cited from earlier work
[1] = tested on: wild‐type and mutant EZH2 enzymes; settings: no method or reference given; cited from earlier work
Caco‐2 cell model = tested on: Caco‐2 cell model; set-up: method as in PMID 34498807; settings: preclinical results; cited from earlier work
[2] = Pharmacokinetic interaction study of itraconazole on SHR2554, plasma SHR2554 by HPLC-MS/MS; format: in vivo, human; settings: for AUC0–t / AUC0–∞ / C max: plasma SHR2554, mean ± SD
Method: Eighteen volunteers were recruited for the study. […] The samples of venous blood (4 ml) were collected into heparinized Vacutainer™ tubes and mixed gently. […] Thereafter, plasma was separated by centrifugation (2000g at 4°C for 10 min) within 1 h of sample collection and then stored at −80°C before analyses. The plasma concentrations of SHR2554 were determined by a validated method with sensitivity and specificity using high‐performance liquid chromatography–tandem mass spectrometry (HPLC‐MS/MS) by Shanghai InnoStar Bio‐tech Co. Ltd. Blood samples were pretreated by protein precipitation with acetonitrile. Biological sample analysis was performed using SHR149633 (free base) as an internal standard. Separation of SHR2554 was carried out using a […] ZORBAX Extend‐C18 column (2.1 × 50 mm, 1.8 μm), and analytes were detected on an AB SCIEX QTRAP 5500 mass spectrometer. The assay was linear over the range of 1–2000 ng·ml^−1. […] Plasma samples are stable under various conditions. The PK parameters were evaluated using Phoenix WinNonlin v8.1. Statistical analysis was performed with SAS v9.2 (SAS Institute). Descriptive statistics and tabulation of PK parameters for analytes were performed, and mean concentration‐time curves were plotted. After natural log transformation, the PK parameters were fitted with a mixed‐effects model. In the mixed‐effects model analysis, medication (itraconazole combined with SHR2554 or SHR2554 alone) was used as a fixed effect, and the participants in the model fitting were used as random effects. The corrected least‐square mean difference and 90% confidence interval (CI) between the administration of a single drug (SHR2554) alone and a combination drug (co‐administration of SHR2554 and itraconazole) were obtained. The corrected least‐square mean difference and its 90% confidence interval were converted to the adjusted geometric mean ratios (GMRs) (co‐administration of SHR2554 and itraconazole/SHR2554 alone) and its 90% confidence interval by taking the antilog.

[3] = cited from earlier work
[4] = in vivo
Method: Eighteen volunteers were recruited for the study. The subjects were orally administered SHR2554 at a 50 mg daily dose (Day 1); then, they were orally administered itraconazole 200 mg Quaque Die (QD) for 4 days (Days 4–7) followed by co‐administration of itraconazole 200 mg and SHR2554 50 mg (Day 8). They took itraconazole 200 mg QD for 4 days (Days 9–12). All subjects were fasted for at least 10 h, and they ate a standard meal in 30 min before drug administration. Water was forbidden within 1 h after drug administration, and the subjects were fasted for at least 4 h after drug administration.
Safety evaluation included adverse events, laboratory tests, physical examination, measurement of vital signs, 12‐lead electrocardiogram, etc. All abnormal and clinically significant laboratory results were followed up until they returned to normal.

CYP3A4 [5] = settings: preclinical test, no method or reference given; cited from earlier work
[6] = cited from earlier work; remark: listed apart in the source
CYP3A4 [7] = settings: preclinical test, no method or reference given; cited from earlier work; remark: listed apart in the source
CYP3A4 [8] = settings: sponsor's preclinical studies, no method or reference given; cited from earlier work
[9] = tested on: cell H3K27Me3 and cell proliferation; set-up: method as in PMID 34503063; settings: cited from earlier work
[10] = cited from earlier work; remark: listed apart in the source
[11] = SHR2554 50 mg co-administered with itraconazole 200 mg (Day 8), fed, mean ± SD
[12] = SHR2554 50 mg co-administered with itraconazole 200 mg (Day 8), fed
[13] = SHR2554 50 mg single oral dose alone (Day 1), fed, mean ± SD
[14] = SHR2554 50 mg single oral dose alone (Day 1), fed
[15] = SHR2554 50 mg, itraconazole 200 mg, 90% CI in brackets
[16] = completed or ongoing clinical trials of SHR2554, reference not given

For CCc1c(N(CC)C2CCOCC2)cc2oc(CN3CCCCC3)cc2c1C(=O)NCc1c(C)cc(C)[nH]c1=O [SHR2554], the “serum and tumor systemic exposure as fraction of that of EPZ-6438” value (tumor) is given as “about one‐fifth”, the “tumor inhibition rate relative to the reference compound EPZ-6438” value (tumor) is given as “higher” and the “inhibition of the activity of wild-type and mutant EZH2 enzymes” value [1] is given as “potently inhibits”. The permeability (Caco‐2 cell model) was “low permeability”, the “CL/F (apparent clearance)” value [2, 11] was 98.4 ± 46.96 L/h and the “t 1/2 (elimination half-life)” value [2, 11] was 8.678 ± 3.6031 h. The “AUC0–t” value [2, 12] was 612.13 ± 315.720 ng·h/mL, the “AUC0–∞” value [2, 12] was 641.53 ± 319.538 ng·h/mL and the C max ([2]; SHR2554 50 mg co-administered with itraconazole 200 mg (Day 8; itraconazole 200 mg QD Days 4-12), fed) was 70.538 ± 25.0219 ng/mL. For the same compound, the “plasma concentration of all subjects at 96 h” value ([2]; SHR2554 50 mg combined with itraconazole 200 mg) was “below LLOQ”, the “AUC_%Extrap (percentage of AUCINF_pred due to extrapolation from Tlast to infinity)” value [2, 13] was 14.498 ± 2.9731 (20.51) [N = 8] % and the “CL/F (apparent clearance)” value [2, 13] was 2127.7 ± 1592.02 L·h^−1 and 2127.7 ± 1592.02 (74.82) [N = 18] L·h^−1. The T max [2, 13] was 1.472 ± 0.6286 (0.50, 3.00) [N = 18] h, the “V z /F” value [2, 13] was 8439.2 ± 3779.31 (44.78) [N = 18] L and the “t 1/2 (elimination half-life)” value [2, 13] was 3.287 ± 1.0636 (1.76, 5.94) [N = 18] h. For the same compound, the “AUC0–t” value [2, 14] was 28.70 ± 18.913 (65.90) [N = 18] h·ng·ml^−1, the “AUC0–∞” value [2, 14] was 50.99 ± 19.358 (37.97) [N = 8] h·ng·ml^−1 and the C max [2, 14] was 10.197 ± 7.0262 (68.91) [N = 18] ng·ml^−1. For the same compound, the “adjusted geometric mean ratio of SHR2554 AUC0–t (co-administration with itraconazole / SHR2554 alone)” value [2, 15] was 23.75 fold, the “adjusted geometric mean ratio of SHR2554 AUC0–∞ (co-administration with itraconazole / SHR2554 alone)” value [2, 15] was 12.47 fold and the “adjusted geometric mean ratio of SHR2554 C max (co-administration with itraconazole / SHR2554 alone)” value [2, 15] was 7.73 fold. For the same compound, the “plasma concentration of all subjects at 24 h after administration” value ([2]; single-dose phase of SHR2554 50 mg, assay range 1–2000 ng·ml^−1) was “below lower limit of quantitation”, the “subjects with grade four neutropenia reported as SAE/DLT” value ([3]; 350 mg group, ref NCT03603951) was “one” and the “subjects with grade three and four decreased platelet counts reported as SAE/DLT” value ([3]; 400 mg BID group, as of January 3, 2020, ref NCT03603951) was “two”. The “safety at doses below 300 mg BID (including 300 mg BID)” value ([3]; no drug-related SAE or DLT, previous clinical studies, ref NCT03603951) was “good and good safety profile”, the “recommended phase II dose” value ([3]; previous clinical studies, ref NCT03603951) was 350 mg BID and the “increase of exposure relative to increase of dose” value ([3]; range of 50–400 mg BID, ref NCT03603951) was “higher than that of the administered dose”. For the same compound, the “subjects with grade two anemia reported as SAE” value ([3]; ref NCT03741712) was “one”, the “Itraconazole‐related TEAEs, Cases” value [4] was 2 and the “Itraconazole‐related TEAEs, Number of subjects (%)” value [4] was 2 (11.1). The “SHR2554‐related TEAEs, Cases” value [4] was 12, the “SHR2554‐related TEAEs, Number of subjects (%)” value [4] was 9 (50.0) and the “TEAEs, Cases” value [4] was 13. For the same compound, the “TEAEs, Number of subjects (%)” value [4] was 9 (50.0), the “TEAEs, Total” value [4] was 9 (50.0) and the “TEAEs: All kinds of inspection” value [4] was 8 (44.4). The “TEAEs: Appendicitis” value [4] was 0, the “TEAEs: Blood in the urine” value [4] was 2 (11.1) and the “TEAEs: Cardiac organ diseases” value [4] was 1 (5.6). For the same compound, the “TEAEs: Hematuria” value [4] was 1 (5.6), the “TEAEs: High blood uric acid” value [4] was 1 (5.6) and the “TEAEs: Increased blood bilirubin” value [4] was 0. The “TEAEs: Increased blood triglyceride” value [4] was 4 (22.2), the “TEAEs: Increased heart rate” value [4] was 1 (5.6) and the “TEAEs: Infectious diseases” value [4] was 0. The “TEAEs: Kidney and urinary system diseases” value [4] was 2 (11.1), the “TEAEs: Positive bacterial tests” value [4] was 2 (11.1) and the “TEAEs: Positive urine leukocyte” value [4] was 0. The “TEAEs: Rash” value [4] was 0, the “TEAEs: Skin and subcutaneous tissue diseases” value [4] was 0 and the “TEAEs: Spermaturia” value [4] was 1 (5.6). For the same compound, the “TEAEs: Supraventricular extrasystole contraction” value [4] was 1 (5.6), the “drug-related TEAEs, Cases” value [4] was 16 and the “inhibitory effect on CYP3A4” value (CYP3A4 [5]) was “weak inhibitory effect”. The “electrocardiogram finding in some subjects” value ([6]; completed or ongoing clinical trials of SHR2554, clinically controllable, no reference given) was “prolongation of the QT interval of the electrocardiogram”, the “most common drug-related TEAEs in hematology” value [6, 16] was “decreased white blood cell count, thrombocytopenia, neutropenia, and hyperlipidemia, increased aspartate aminotransferase level, hypertension, elevated alanine aminotransferase, anemia” and the “non-hematological common drug-related TEAEs” value [6, 16] was “nausea and fatigue”. For the same compound, the “induction of the expression of the CYP3A4 enzyme” value (CYP3A4 [7]) was “only high concentration SHR2554 can induce”, the “enzyme catalysing the oxidative metabolism” value (CYP3A4 [8]) was “mainly metabolized by CYP3A4; also recorded: mainly catalyzed by CYP3A4” and the “IC50 for inhibiting cell H3K27Me3 and cell proliferation, relative to EPZ-6438” value [9] was “comparable or even better”. The “anti-tumor activity in vitro, relative to EPZ-6438 (tazemetostat)” value [9] was “comparable”.
In the case of CCN(c1cc(-c2ccc(CN3CCOCC3)cc2)cc(C(=O)NCc2c(C)cc(C)[nH]c2=O)c1C)C1CCOCC1 [tazemetostat, reference compound], the “adverse effects in clinical trial” value [6] is listed as “thrombocytopenia, neutropenia, and anemia”.
For CCC(C)n1ncn(-c2ccc(N3CCN(c4ccc(OCC5COC(Cn6cncn6)(c6ccc(Cl)cc6Cl)O5)cc4)CC3)cc2)c1=O (stereo not shown) [Itraconazole, itraconazole], the “Itraconazole‐related TEAEs, Cases” value ([4]; human) was 2, the “Itraconazole‐related TEAEs, Number of subjects (%)” value ([4]; human) was 2 (11.1) and the “SHR2554‐related TEAEs, Cases” value ([4]; human) was 1. For the same compound, the “SHR2554‐related TEAEs, Number of subjects (%)” value ([4]; human) was 1 (5.6), the “TEAEs, Cases” value ([4]; human) was 2 and the “TEAEs, Number of subjects (%)” value ([4]; human) was 2 (11.1). The “TEAEs, Total” value ([4]; human) was 2 (11.1), the “TEAEs: All kinds of inspection” value ([4]; human) was 1 (5.6) and the “TEAEs: Appendicitis” value ([4]; human) was 0. For the same compound, the “TEAEs: Blood in the urine” value ([4]; human) was 0, the “TEAEs: Cardiac organ diseases” value ([4]; human) was 0 and the “TEAEs: Hematuria” value ([4]; human) was 0. For the same compound, the “TEAEs: High blood uric acid” value ([4]; human) was 0, the “TEAEs: Increased blood bilirubin” value ([4]; human) was 0 and the “TEAEs: Increased blood triglyceride” value ([4]; human) was 1 (5.6). For the same compound, the “TEAEs: Increased heart rate” value ([4]; human) was 0, the “TEAEs: Infectious diseases” value ([4]; human) was 0 and the “TEAEs: Kidney and urinary system diseases” value ([4]; human) was 0. The “TEAEs: Positive bacterial tests” value ([4]; human) was 0, the “TEAEs: Positive urine leukocyte” value ([4]; human) was 0 and the “TEAEs: Rash” value ([4]; human) was 1 (5.6). For the same compound, the “TEAEs: Skin and subcutaneous tissue diseases” value ([4]; human) was 1 (5.6), the “TEAEs: Spermaturia” value ([4]; human) was 0 and the “TEAEs: Supraventricular extrasystole contraction” value ([4]; human) was 0. For the same compound, the “drug-related TEAEs, Cases” value ([4]; human) was 6 and the “drug-related TEAEs, Cases” value [4] was “six”.
In the case of CC[C@H](C)C(=O)O[C@H]1C[C@@H](C)C=C2C=C[C@H](C)[C@H](CC[C@@H](O)C[C@@H](O)CC(=O)O)[C@H]21 [lovastatin (acid)], the “change in the AUC with itraconazole” value ([10]; itraconazole dose 100 mg) is given as 15 fold and the “change in the AUC with itraconazole” value ([10]; itraconazole dose 200 mg) is given as 20 fold.
In the case of CC[C@H](C)n1cc(C)c2c(C(=O)NCc3c(C)cc(C)[nH]c3=O)cc(-c3ccc(N4CCNCC4)nc3)cc21 [GSK2816126, reference compound], the “most common adverse reactions in clinical trial” value [6] is given as “fatigue and nausea”.

— publication PMC9883540, “Study on pharmacokinetic interactions between SHR2554 and itraconazole in healthy subjects: A single‐center, open‐label phase I trial” (Cancer Medicine, 2022)
